According to PubChem BioAssay AID256 (DTP/NCI, 2004):
Inconclusive results and toxic doses are left out. The calls were made as follows: active = survival T/C of 150% or more; inactive = T/C below 125% in these data.

System: CD2F1 mice, L1210 leukemia ip, survival T/C
Experiment: NCI In Vivo Anticancer Drug Screen. Data for tumor model L1210 Leukemia (intraperitoneal) in CD2F1 (CDF1) mice
Settings: endpoint: mean survival time, higher = longer survival
Method in brief: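 Tumor-bearing mice (transplanted tumor) were split into treated and vehicle control groups, and the measured endpoint of each treated group was divided by that of its vehicle controls.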

[1] = dose: 100.0 mg/kg/injection, schedule: Q01DX009 (ip), vehicle: saline with Tween-80
[2] = dose: 100.0 mg/kg/injection, schedule: Q04DX003 (ip), vehicle: saline with Tween-80
[3] = dose: 200.0 mg/kg/injection, schedule: Q01DX009 (ip), vehicle: saline with Tween-80
[4] = dose: 200.0 mg/kg/injection, schedule: Q04DX003 (ip), vehicle: saline with Tween-80
[5] = dose: 400.0 mg/kg/injection, schedule: Q04DX003 (ip), vehicle: saline with Tween-80
[6] = dose: 100.0 mg/kg/injection, schedule: Q04DX002 (ip), vehicle: saline with Tween-80
[7] = dose: 200.0 mg/kg/injection, schedule: Q04DX002 (ip), vehicle: saline with Tween-80
[8] = dose: 400.0 mg/kg/injection, schedule: Q04DX002 (ip), vehicle: saline with Tween-80

Measured: T/C

COc1ccc(OC)c(C(O)CCc2cccc(N)c2)c1 (stereo not given)
inactive: dose: 100.0 mg/kg/injection, schedule: Q04DX002 (ip), vehicle: Klucel (hydroxypropylcellulose) (HPC) 93 % of control | dose: 200.0 mg/kg/injection, schedule: Q04DX002 (ip), vehicle: Klucel (hydroxypropylcellulose) (HPC) 93 % of control | dose: 400.0 mg/kg/injection, schedule: Q04DX002 (ip), vehicle: Klucel (hydroxypropylcellulose) (HPC) 97 % of control

CC1(C)C(CC(=O)O)CC1C(=O)O (stereo not given)
inactive: [1] 98 % of control | [2] 100 % of control | [3] 98 % of control | [4] 96 % of control | [5] 100 % of control

CCCCCCCCCSCCOC(=S)N(C)C
inactive: [6] 93 % of control | [7] 93 % of control | [8] 93 % of control

O=[N+]([O-])c1ccc(NCc2ccccc2)c([N+](=O)[O-])c1
inactive: dose: 100.0 mg/kg/injection, schedule: Q04DX003 (ip), vehicle: gum acacia 98 % of control | dose: 200.0 mg/kg/injection, schedule: Q04DX003 (ip), vehicle: gum acacia 106 % of control | dose: 400.0 mg/kg/injection, schedule: Q04DX003 (ip), vehicle: gum acacia 102 % of control

O=c1cc[nH]c2cc(Cl)ccc12
inactive: dose: 100.0 mg/kg/injection, schedule: Q04DX003 (ip), vehicle: alcohol 89 % of control | dose: 200.0 mg/kg/injection, schedule: Q04DX003 (ip), vehicle: alcohol 96 % of control

O=C(O)COc1ccc(Cl)cc1Cl.[Cr]
inactive: [6] 94 % of control | [7] 87 % of control | [8] 102 % of control

CCOC(=O)N1C2c3ccccc3C(c3ccccc32)N1C(=O)OCC
inactive: [1] 94 % of control | [2] 95 % of control | [3] 89 % of control | [4] 98 % of control | [5] 93 % of control

Cc1cc(Oc2ccc(Cl)cc2NC(=O)Nc2ccc(Cl)c(Cl)c2)c(S(=O)(=O)O)cc1Cl
inactive: dose: 100.0 mg/kg/injection, schedule: Q01DX001 (ip), vehicle: acetone 94 % of control | dose: 200.0 mg/kg/injection, schedule: Q01DX001 (ip), vehicle: acetone 94 % of control | dose: 400.0 mg/kg/injection, schedule: Q01DX001 (ip), vehicle: acetone 93 % of control

O=[N+]([O-])c1ccc2c(c1)-c1ccccc1/C2=N\O
inactive: dose: 50.0 mg/kg/injection, schedule: Q01DX001 (ip), vehicle: carboxymethylcellulose (CMC) 98 % of control | dose: 100.0 mg/kg/injection, schedule: Q01DX001 (ip), vehicle: carboxymethylcellulose (CMC) 104 % of control | dose: 200.0 mg/kg/injection, schedule: Q01DX001 (ip), vehicle: carboxymethylcellulose (CMC) 111 % of control | dose: 400.0 mg/kg/injection, schedule: Q01DX001 (ip), vehicle: carboxymethylcellulose (CMC) 104 % of control

NCCN1c2ccccc2Sc2ccccc21
inactive: dose: 12.5 mg/kg/injection, schedule: Q01DX009 (ip), vehicle: other 105 % of control | dose: 25.0 mg/kg/injection, schedule: Q01DX009 (ip), vehicle: other 98 % of control | dose: 50.0 mg/kg/injection, schedule: Q01DX009 (ip), vehicle: other 113 % of control

C=C1c2ccccc2C=NN1c1ccccc1
inactive: dose: 100.0 mg/kg/injection, schedule: Q01DX001 (ip), vehicle: other 94 % of control | dose: 200.0 mg/kg/injection, schedule: Q01DX001 (ip), vehicle: other 88 % of control | dose: 400.0 mg/kg/injection, schedule: Q01DX001 (ip), vehicle: other 92 % of control

CCCCCCC[CH2][Sn]([CH2]C)([CH2]C)[O]C(C)=O
inactive: dose: 0.25 mg/kg/injection, schedule: Q04DX003 (ip), vehicle: saline 106 % of control | dose: 0.5 mg/kg/injection, schedule: Q04DX003 (ip), vehicle: saline 101 % of control | dose: 0.63 mg/kg/injection, schedule: Q04DX003 (ip), vehicle: saline 93 % of control | dose: 1.0 mg/kg/injection, schedule: Q04DX003 (ip), vehicle: saline 103 % of control | dose: 1.25 mg/kg/injection, schedule: Q04DX003 (ip), vehicle: saline 102 % of control

O=S(CCCCO)c1ccccc1 (stereo not given)
inactive: dose: 50.0 mg/kg/injection, schedule: Q04DX002 (ip), vehicle: saline 101 % of control | dose: 100.0 mg/kg/injection, schedule: Q04DX002 (ip), vehicle: saline 104 % of control | dose: 200.0 mg/kg/injection, schedule: Q04DX002 (ip), vehicle: saline 96 % of control
